Laboratory results published in patent US20240165196A1, “Beta-Lactamase Inhibitors” (VIB VZW, priority 2021, published 2024).

What was measured:
Type in all cases: cell-based
[1] = system: E. coli clinical isolate, β-lactamase SHV-12; TEM-ESBL; test: MIC of ampicillin without/with 30 μg/mL TEM3.2, clinical isolates; details: isolate 2017 Germany, RTI, Bronchi; ampicillin alone
Method: (§1) Moreover, the core sequence of peptide TEM3.0 also occurs in the structurally related SHV β-lactamase (FIG. 2E). Although the C-terminal extension residues H and N have been replaced with physicochemically similar R and Q, respectively (FIG. 2H). […] To quantify the synergy between these four peptides and penicillin G, we performed a so-called checkerboard assay, which allows to compare the activity of two test compounds co-incubated (here peptide and a beta-lactam antibiotic), to their individual activities in isolation. The result from the assay is quantified as the Fractional Inhibitory Concentration Index (FICI), and it is generally accepted that values below 0.5 indicate synergistic effects between the compounds. As a control, we generated a peptide using the same design, but based on a previously identified APR from the β-galactosidase enzyme (BGAL)^16 from E. coli (APR=SVIIWSL, peptide sequence=[…]) that has a MIC value>100 μg/mL on E. coli strain UZ_TEM104. We evaluated the synergy of the peptides with penicillin G in clinical E. coli isolates carrying the TEM (FIG. 2I) or SHV enzymes (FIG. 2J). […] As a further control, we also performed a checkerboard assay with an E. coli strain that was resistant to the aminoglycoside kanamycin and observed no synergy between this unrelated antibiotic and our peptides (FIG. 2L), in line with the notion that we are inhibiting a beta-lactamase but not the aminoglycoside degrading enzyme. […] The list of strains included some that harbored only TEM or SHV, but others contained additional Ambler Class A (CTX-M or OXA) or Class B (VIM and NDM) beta-lactamases. […] In contrast, the presence of the NDM-type […], that does have a high affinity for Ampicillin and that is completely distinct in sequence and structure from TEM and SHV, seemed to completely prevent the effect of the peptide on the beta-lactam sensitivity of the strains in which it occurred (see also further). As it appeared that TEM3.2 had activity in most isolates tested, we decided to focus further analysis on this peptide. Furthermore, we tested the performance of the TEM3.2 peptide in a checkerboard assay on strains carrying ESBL mutants of TEM, i.e. extended-spectrum mutations that cluster around the active site of the enzyme, and not in the aggregation prone region targeted by the peptide, and as expected from our mode of action, we observed synergy with ampicillin on these strains (FIG. 2M).
(§2) Determination of MIC values using the broth microdilution in the 96-well plate (BD Biosciences, Belgium) according to the EUCAST guideline, which was performed in 96-well polystyrene flat bottom microtiter plates (BD Biosciences). Briefly, a single colony was inoculated into 5 mL Difco™ Mueller Hinton Broth (BD Biosciences Ref 275730) and grown to the end-exponential growth phase in a shaking incubator at 37° C. Cultures were subsequently diluted to an MacFarland (0.5 optical density) then the culture was diluted to reach 10^6 CFU/mL in fresh MHB medium. 50 μl of different concentration of peptides ranging from 128 to 2 μg/mL were serially diluted to the sterile 96-well plate in MHB. 50 μL of the diluted bacteria in MHB were pipetted into 96-well plates to reach the final volume of 100 μL. The bacteria grown with the maximum concentration of carrier and medium were considered as positive and negative controls, respectively. The plates were statically incubated overnight at 37° C. to allow bacterial growth. OD was measured at 590 nm a multipurpose ultraviolet-visible plate reader, and the absorbance of the growth bacteria was measured using absorbance reader. Bacterial growth was also visually inspected and agreed well with the OD reading.

[2] = system: E. coli clinical isolate, β-lactamase SHV-2; CTX-M-55; VIM-1; test: as above; details: isolate 2017 Turkey, UTI, Urine; ampicillin alone
Method: as §1, §2

[3] = system: E. coli clinical isolate, β-lactamase TEM-1; test: as above; details: isolates year NA, country NA, ampicillin alone
Method: as §1, §2

[4] = system: E. coli clinical isolate, β-lactamase TEM-ESBL; CTX-M-15; NDM-19; test: as above; details: isolate 2017 Qatar, IAI, Abscess; ampicillin alone
Method: as §1, §2

[5] = system: E. coli clinical isolate, β-lactamase TEM-ESBL; CTX-M-15; NDM-5; test: as above; details: isolate 2017 Qatar, UTI, Urine; ampicillin alone
Method: as §1, §2

[6] = system: E. coli clinical isolate, β-lactamase TEM-ESBL; CTX-M-24; OXA-48; test: as above; details: isolate 2017 Turkey, IAI, Abscess; ampicillin alone
Method: as §1, §2

[7] = system: E. coli clinical isolate, β-lactamase TEM-ESBL; CTX-M-27; test: as above; details: isolate 2017 Romania, UTI, Urine; ampicillin alone
Method: as §1, §2

[8] = system: E. coli clinical isolate, β-lactamase TEM-ESBL; CTX-M-TYPE; test: as above; details: isolate 2017 France, IAI, Peritoneal Fluid; ampicillin alone
Method: as §1, §2

[9] = system: E. coli clinical isolate, β-lactamase TEM-ESBL; test: as above; details: ampicillin alone
Method: as §1, §2

E. coli TEM-1 ? = system: E. coli TEM-1 ?
Method: (§3) Beta-lactamase clinical samples were collected from University Hospitals Leuven and tested for ESBL production using the disk diffusion method^61. The beta-lactamase reference isolates were purchased from IHMA International Health management associates. Bacterial strains were cultivated in Mueller Hinton Broth (MHB, Difco) at 37° C. Whenever required growth media were supplemented with appropriate antibiotic to the medium or plates (kanamycin 30 μg/mL, L-arabinose 0.5 mg/mL, and IPTG 1 mM/mL). Escherichia coli BL21 (Thermo Fisher Scientific, Belgium) was used for cloning and plasmid amplification. For selection of antibiotic resistance colonies, E. coli carrying plasmids was grown in LB agar plates supplemented with the relevant antibiotic. Bacterial CFU counting was done on blood agar plates (BD Biosciences, Belgium) or MHA agar plates. Species identification and antibiograms for all clinical isolates were performed using MALDI-Tof and VITEK® 2 automated system (BioMérieux, France).

E. coli TEM-104 = system: E. coli TEM-104; for Interpretation: key: S, susceptible; I, intermediate; R, resistant
Method: as §3

E. coli TEM-148 = system: E. coli TEM-148; for Interpretation: key: S, susceptible; I, intermediate; R, resistant
Method: as §3

E. coli NDM ? a = test: antimicrobial susceptibility testing, VITEK 2 AST Cards
Method: as §3

E. coli NDM ? b = test: as above
Method: as §3

E. coli SH ? (APHA) = test: as above
Method: as §3

E. coli TEM-206 = test: as above
Method: as §3

Compound `CC1(C)S[C@@H]2[C@H](NC(=O)[C@H](N)c3ccccc3)C(=O)N2[C@H]1C(=O)O` [ampicillin, Ampicillin] has an MIC ampicillin [1] of over 64 µg/mL, an MIC ampicillin [2] of over 64 µg/mL and an MIC ampicillin [3] of over 64 µg/mL. It also gave an MIC ampicillin [4] of over 64 µg/mL, an MIC ampicillin [5] of over 64 µg/mL and an MIC ampicillin [6] of over 64 µg/mL. The MIC ampicillin [7] was over 64 µg/mL, the MIC ampicillin [8] was over 64 µg/mL and the MIC ampicillin ([9]; isolate 2016 Germany, UTI, Urine) was over 64 µg/mL. For the same compound, the MIC ampicillin ([9]; isolate 2016 Lithuania, UTI, Urine) was over 64 µg/mL, the MIC ampicillin ([9]; isolate 2017 Israel, UTI, Urine) was over 64 µg/mL and the MIC ampicillin ([9]; isolate 2017 Portugal, RTI, Bronchi) was over 64 µg/mL. For the same compound, the MIC ampicillin ([9]; isolates 2016 South Africa, IAI, Peritoneal Fluid) was over 64 µg/mL, the Interpretation (E. coli TEM-1 ?) was “R” and the MIC (E. coli TEM-1 ?) was at least 32 µg/mL. The Interpretation (E. coli TEM-104) was “R”, the MIC (E. coli TEM-104) was at least 32 µg/mL and the Interpretation (E. coli TEM-148) was “R”. For the same compound, the MIC (E. coli TEM-148) was at least 32 µg/mL, the Interpretation (E. coli NDM ? a) was “R” and the Interpretation (E. coli NDM ? b) was “R”. The Interpretation (E. coli SH ? (APHA)) was “R”, the Interpretation (E. coli TEM-206) was “R” and the MIC (E. coli TEM-206) was at least 32 µg/mL.
